{"source": "patent US20220040193A1", "about": "“FORMULATIONS OF PHOSPHOINOSITIDE 3-KINASE INHIBITORS” (VENTHERA, INC., priority 2020, published 2022)", "origin": "cited, not measured here", "key": {"[1]": {"tested_on": "PI3K"}, "[2]": {"tested_on": "cancer cell"}}, "data": [{"smiles": "Oc1cccc(-c2nc(N3CCOCC3)c3sccc3n2)c1", "note": "[MTPP, 3-(4-morpholinothieno(3,2-d)pyrimidin-2-yl)phenol]", "values": [{"measurement": "PI3K inhibiting activity", "setting": "[1]", "result": "excellent PI3K inhibiting activity"}, {"measurement": "cancer cell growth inhibiting activity", "setting": "[2]", "result": "cancer cell growth inhibiting activity"}]}]}
